Earlier results as cited in US8933112B2, “Topical liquid to ameliorate pain and promote healing of burn-injured skin” (Memphaceuticals, LLC, priority 2012, dated 2015).

Legend:
human T lymphocytes = conditions: by blocking Ca2+-sensitive K+ channels
[1] = test system: Lewis lung carcinoma cells and CT-26 colon adenocarcinoma cells
[2] = target: T1, nitric-oxide synthase in bovine brain (Bos taurus, UniProt A0A3Q1M6M2)
T1 construct: nitric-oxide synthase in bovine brain; host or cells: bovine brain
T1 sequence (A0A3Q1M6M2 1-1468): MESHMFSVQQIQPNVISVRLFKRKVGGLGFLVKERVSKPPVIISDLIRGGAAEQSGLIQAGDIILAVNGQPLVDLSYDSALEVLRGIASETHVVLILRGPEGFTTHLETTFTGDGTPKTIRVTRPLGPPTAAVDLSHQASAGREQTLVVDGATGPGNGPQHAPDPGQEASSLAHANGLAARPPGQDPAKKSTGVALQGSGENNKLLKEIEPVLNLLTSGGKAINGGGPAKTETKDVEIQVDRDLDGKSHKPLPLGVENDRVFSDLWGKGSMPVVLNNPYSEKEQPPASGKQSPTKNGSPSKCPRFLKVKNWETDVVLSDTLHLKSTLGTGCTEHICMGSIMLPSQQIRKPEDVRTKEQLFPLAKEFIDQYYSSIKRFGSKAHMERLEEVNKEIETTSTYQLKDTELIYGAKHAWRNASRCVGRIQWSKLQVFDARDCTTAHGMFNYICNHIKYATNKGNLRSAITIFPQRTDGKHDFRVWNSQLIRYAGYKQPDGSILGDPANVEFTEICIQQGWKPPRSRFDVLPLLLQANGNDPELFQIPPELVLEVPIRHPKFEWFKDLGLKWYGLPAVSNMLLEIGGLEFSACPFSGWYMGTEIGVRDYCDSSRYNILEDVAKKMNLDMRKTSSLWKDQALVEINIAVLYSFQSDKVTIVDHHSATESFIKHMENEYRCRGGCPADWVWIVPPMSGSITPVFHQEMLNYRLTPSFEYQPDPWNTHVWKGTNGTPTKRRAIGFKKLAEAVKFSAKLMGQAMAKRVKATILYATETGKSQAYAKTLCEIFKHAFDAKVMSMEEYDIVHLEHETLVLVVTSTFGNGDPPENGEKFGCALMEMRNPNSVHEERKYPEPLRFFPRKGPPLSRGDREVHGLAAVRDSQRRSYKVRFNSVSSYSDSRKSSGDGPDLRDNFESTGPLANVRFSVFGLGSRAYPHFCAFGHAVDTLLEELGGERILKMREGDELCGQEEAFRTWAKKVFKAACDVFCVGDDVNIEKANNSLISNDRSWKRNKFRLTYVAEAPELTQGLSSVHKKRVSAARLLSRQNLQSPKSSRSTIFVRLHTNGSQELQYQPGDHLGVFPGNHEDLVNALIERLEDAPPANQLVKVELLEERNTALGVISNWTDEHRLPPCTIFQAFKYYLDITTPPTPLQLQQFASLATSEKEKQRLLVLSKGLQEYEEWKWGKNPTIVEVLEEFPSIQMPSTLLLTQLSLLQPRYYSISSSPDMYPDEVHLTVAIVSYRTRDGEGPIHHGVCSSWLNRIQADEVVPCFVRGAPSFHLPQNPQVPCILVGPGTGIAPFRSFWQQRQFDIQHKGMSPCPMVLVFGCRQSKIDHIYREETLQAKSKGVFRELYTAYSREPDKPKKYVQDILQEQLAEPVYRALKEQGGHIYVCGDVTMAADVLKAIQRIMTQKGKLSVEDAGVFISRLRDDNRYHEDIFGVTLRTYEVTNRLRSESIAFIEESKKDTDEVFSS

[3] = test system: Ca^2+-dependent K^+ channels of human red blood cells, rat thymocytes, and Ehrlich ascites tumor cells; conditions: among tioconazole, miconazole, econazole, clotrimazole
[4] = target: T2, 6-phosphofructo-1-kinase (PFK) (Oryctolagus cuniculus, UniProt P00511); conditions: independent of anti-calmodulin activity
T2 sequence (P00511 2-780 limits assumed): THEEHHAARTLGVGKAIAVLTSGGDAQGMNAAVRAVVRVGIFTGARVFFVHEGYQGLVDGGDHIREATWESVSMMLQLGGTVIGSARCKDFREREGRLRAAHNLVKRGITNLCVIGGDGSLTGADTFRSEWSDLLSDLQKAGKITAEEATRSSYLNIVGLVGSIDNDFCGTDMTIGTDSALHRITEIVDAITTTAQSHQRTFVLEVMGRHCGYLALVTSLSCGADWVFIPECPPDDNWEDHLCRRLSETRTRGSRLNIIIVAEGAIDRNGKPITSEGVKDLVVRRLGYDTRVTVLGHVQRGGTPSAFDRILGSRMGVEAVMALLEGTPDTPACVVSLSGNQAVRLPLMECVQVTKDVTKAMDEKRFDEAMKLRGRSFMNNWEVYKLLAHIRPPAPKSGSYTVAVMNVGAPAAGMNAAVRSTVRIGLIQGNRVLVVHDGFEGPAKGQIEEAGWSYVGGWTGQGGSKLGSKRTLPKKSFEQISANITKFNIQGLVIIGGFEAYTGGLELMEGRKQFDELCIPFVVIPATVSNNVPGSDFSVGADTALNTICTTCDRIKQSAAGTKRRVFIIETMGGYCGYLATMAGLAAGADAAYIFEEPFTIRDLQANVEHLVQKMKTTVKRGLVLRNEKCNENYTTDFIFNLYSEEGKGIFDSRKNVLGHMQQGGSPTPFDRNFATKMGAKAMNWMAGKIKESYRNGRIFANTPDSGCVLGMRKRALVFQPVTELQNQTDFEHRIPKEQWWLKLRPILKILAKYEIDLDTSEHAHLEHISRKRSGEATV

- citrulline formation by nitric-oxide synthase ([2]; bovine brain): inhibited citrulline formation
- inhibition of PFK [4]: directly inhibits
Structure (SMILES): Clc1ccccc1C(c1ccccc1)(c1ccccc1)n1ccnc1 [clotrimazole, 1-(o-chloro-α,α-diphenylbenzyl)imidazole]
- activation of human T lymphocytes (human T lymphocytes): inhibits activation
- levels of glucose 1,6-bisphosphate, fructose 1,6-bisphosphate, ATP, and cell viability [1]: significant reduction
- cytochrome-c reductase activity of nitric-oxide synthase ([2]; calmodulin-dependent fashion): inhibited the cytochrome-c reductase activity
- inhibition of Ca2+-dependent K+ channels [3]: most potent inhibitor
